Here are results for 22 compounds from patent publication US8163766B2, “Beta-secretase modulators and methods of use” (Amgen Inc., priority 2005, dated 2012).

Each structure is given as a SMILES string.

For the experiment, the system named is Aβ 40 in conditioned media of cells stably expressing Amyloid Precursor Protein (APP). As to the kind of experiment: BACE Cell-Based Assay (Aβ40 in conditioned medium, sandwich ELISA). As to conditions: 24 hours of incubation with the test compounds, Aβ 40 by sandwich ELISA, read-out: IC50 values in the cell-based assay (inhibition of Aβ 40). Here is the method: The cell-based assay measures inhibition or reduction of Aβ40 in conditioned medium of test compound treated cells, which express amyloid precursor protein.
Cells stably expressing Amyloid Precursor Protein (APP) were plated at a density of 40K cells/well in 96 well plates (Costar). The cells were cultivated for 24 h at 37° C. and 5% CO2 in DMEM supplemented with 10% FBS. The test compounds were then added to cells in 10-point dose response concentrations with the starting concentration being either 100 μM or 10 μM. The compounds were diluted from stock solutions in DMSO and the final DMSO concentration of the test compounds on cells was 0.1%. After 24 hours of incubation with the test compounds the supernatant conditioned media was collected and the Aβ 40 levels were determined using a sandwich ELISA. The IC50 of the compound was calculated from the percent of control or percent inhibition of Aβ 40 as a function of the concentration of the test compound.
The sandwich ELISA to detect Aβ 40 was performed in 96 well microtiter plates, which were pre-treated with goat anti-rabbit IgG (Pierce). The capture and detecting antibody pair that were used to detect Aβ 40 from cell supernatants were affinity purified pAb40 (Biosource) and biotinylated 6E10 (Signet Labs Inc.), respectively. The optimal concentration for the pAb40 antibody was 3 μg/ml in Superblock/TBS (Pierce) that was supplemented with 0.05% Tween 20 (Sigma). Optimal concentration for the detection antibody 6E10-biotinylated was […] in Superblock/TBS (Pierce) that had been supplemented with 2% normal goat serum and 2% normal mouse serum.
Cellular supernatants were incubated with the capture antibody for 3 h at 4° C., followed by 3 wash steps in TBS-tween (0.05%). The detecting antibody incubation was for 2 h at 4° C., again followed by the wash steps as described previously. The final readout of the ELISA is Time-Resolved Fluorescence (counts per minute) using Delfia reagents Streptavidin-Europium and Enhancement solutions (Perkin Elmer) and the Victor 2 multilabel counter (Perkin Elmer).
Consider `Cc1ccc2c(c1)[C@@H](NC[C@@H](O)[C@H](Cc1ccccc1)NC(=O)c1ccc(=O)n(CC(C)(C)C)c1)CC1(CCCC1)O2` [Example 133, N-((2S,3R)-4-((S)-2,2-spirocyclopentyl-6-methylchroman-4-ylamino)-3-hydroxy-1-phenylbutan-2-yl)-1-neopentyl-6-oxo-1,6-dihydropyridine-3-carboxamide], for which the half-maximal inhibitory concentration (IC50) was no more than 5 µM. Next, `O=C(N[C@@H](Cc1ccccc1)[C@H](O)CN[C@H]1CC2(CCCC2)Oc2ccc(OC(F)(F)F)cc21)c1cc(N2CCCC2=O)c(=O)n(C2CCCC2)c1` [Example 134, 1-cyclopentyl-N-((2S,3R)-4-((S)-2,2-spirocyclopentyl-6-(trifluoromethoxy)chroman-4-ylamino)-3-hydroxy-1-phenylbutan-2-yl)-6-oxo-5-(2-oxopyrrolidin-1-yl)-1,6-dihydropyridine-3-carboxamide]: no more than 5 µM. Take `O=C(N[C@@H](Cc1ccccc1)[C@H](O)CN[C@H]1CC2(CCCC2)Oc2ccc(OC(F)(F)F)cc21)c1ccc(=O)n(C2CCCC2)c1` [Example 135, 1-cyclopentyl-N-((2S,3R)-4-((S)-2,2-spirocyclopentyl-6-(tri-fluoromethoxy)chroman-4-ylamino)-3-hydroxy-1-phenylbutan-2-yl)-6-oxo-1,6-dihydropyridine-3-carb oxamide]: the concentration for half-maximal inhibition (IC50) is no more than 5 µM. `CC(C)(C)Cn1cc(C(=O)N[C@@H](Cc2ccccc2)[C@H](O)CN[C@H]2CC3(CCCC3)Oc3ccc(OC(F)(F)F)cc32)ccc1=O` [Example 136, N-((2S,3R)-4-((S)-2,2-spirocyclopentyl-6-(trifluoro-methoxy)chroman-4-ylamino)-3-hydroxy-1-phenylbutan-2-yl)-1-neopentyl-6-oxo-1,6-dihydropyridine-3-carboxamide]: the IC50 is no more than 5 µM. With `CC(C)c1ccc2c(c1)[C@@H](NC[C@@H](O)[C@H](Cc1ccccc1)NC(=O)c1cc(N3CCCC3=O)c(=O)n(C3CCCC3)c1)CC1(CCCC1)O2` [Example 137, 1-cyclopentyl-N-((2S,3R)-4-((S)-2,2-spirocyclopentyl-6-iso-propylchroman-4-ylamino)-3-hydroxy-1-phenylbutan-2-yl)-6-oxo-5-(2-oxopyrrolidin-1-yl)-1,6-dihydropyridine-3-carboxamide] the figure was no more than 5 µM; with `CC(C)c1ccc2c(c1)[C@@H](NC[C@@H](O)[C@H](Cc1ccccc1)NC(=O)c1ccc(=O)n(C3CCCC3)c1)CC1(CCCC1)O2` [Example 138, 1-cyclopentyl-N-((2S,3R)-4-((S)-2,2-spirocyclopentyl-6-iso-propylchroman-4-ylamino)-3-hydroxy-1-phenylbutan-2-yl)-6-oxo-1,6-dihydropyridine-3-carb oxamide], no more than 5 µM.

`CCc1ccc2c(c1)[C@@H](NC[C@@H](O)[C@H](Cc1ccccc1)NC(=O)c1cc(N3CCCC3=O)c(=O)n(C3CCCC3)c1)CC1(CCCC1C)O2` (stereo partly drawn) [Example 140, 1-cyclopentyl-N-((2S,3R)-4-((S)-6-ethyl-2,2-(-methyl)-spirocyclopentylchroman-4-ylamino)-3-hydroxy-1-phenylbutan-2-yl)-6-oxo-5-(2-oxopyrrolidin-1-yl)-1,6-dihydropyridine-3-carboxamide]: the IC50 was no more than 5 µM.

Regarding `CCc1ccc2c(c1)[C@@H](NC[C@@H](O)[C@H](Cc1ccccc1)NC(=O)c1ccc(=O)n(C3CCCC3)c1)CC1(CCCC1C)O2` (stereo partly drawn) [Example 141, 1-cyclopentyl-N-((2S,3R)-4-((S)-6-ethyl-2,2-(-methyl)-spirocyclopentylchroman-4-ylamino)-3-hydroxy-1-phenylbutan-2-yl)-6-oxo-1,6-dihydropyridine-3-carboxamide], the concentration for half-maximal inhibition (IC50) was no more than 5 µM.

With `CCc1ccc2c(c1)[C@@H](NC[C@@H](O)[C@H](Cc1ccccc1)NC(=O)c1nn(-c3ccccc3)c(=O)cc1Cl)CC1(CCCC1)O2` [Example 142, 4-chloro-N-((2S,3R)-4-((S)-6-ethyl-2,2-spirocyclopentylchroman-4-ylamino)-3-hydroxy-1-phenylbutan-2-yl)-6-oxo-1-phenyl-1,6-dihydropyridazine-3-carboxamide], the 50% inhibitory concentration (IC50) was no more than 5 µM. Consider `CC(C)c1ccc2c(c1)[C@@H](NC[C@@H](O)[C@H](Cc1ccccc1)NC(=O)c1nn(-c3ccccc3)c(=O)cc1Cl)CC1(CCCC1)O2` [Example 144, 4-chloro-N-((2S,3R)-3-hydroxy-4-((S)-6-isopropyl-2,2-spirocyclopentylchroman-4-ylamino)-1-phenylbutan-2-yl)-6-oxo-1-phenyl-1,6-dihydropyridazine-3-carb oxamide], for which the IC50 is no more than 5 µM. As for `CCc1ccc2c(c1)[C@@H](NC[C@@H](O)[C@H](Cc1ccccc1)NC(=O)c1ccc(=O)n(-c3ccccc3)n1)CC1(CCC1)O2` [Example 146, N-((2S,3R)-4-((S)-6-ethyl-2,2-spirocyclobutylchroman-4-ylamino)-3-hydroxy-1-phenylbutan-2-yl)-6-oxo-1-phenyl-1,6-dihydropyridazine-3-carboxamide], the 50% inhibitory concentration (IC50) was no more than 5 µM. With `CCc1ccc2c(c1)[C@@H](NC[C@@H](O)[C@H](Cc1ccccc1)NC(=O)c1nn(-c3ccccc3)c(=O)cc1Cl)CC1(CCC1)O2` [Example 147, 4-chloro-N-((2S,3R)-4-((S)-6-ethyl-2,2-spirocyclobutylchroman-4-ylamino)-3-hydroxy-1-phenylbutan-2-yl)-6-oxo-1-phenyl-1,6-dihydropyridazine-3-carboxamide] the figure was no more than 5 µM; with `O=C(N[C@@H](Cc1ccccc1)[C@H](O)CN[C@H]1CC2(CCCC2)Oc2ccccc21)c1cc(N2CCCC2=O)c(=O)n(C2CCCC2)c1` [Example 148, 1-cyclopentyl-N-((2S,3R)-4-((S)-2,2-spirocyclopentylchroman-4-ylamino)-3-hydroxy-1-phenylbutan-2-yl)-6-oxo-5-(2-oxopyrrolidin-1-yl)-1,6-dihydropyridine-3-carboxamide], no more than 5 µM. With `O=C(N[C@@H](Cc1ccccc1)[C@H](O)CN[C@H]1CC2(CCCC2)Oc2ccccc21)c1ccc(=O)n(C2CCCC2)c1` [Example 149, 1-cyclopentyl-N-((2S,3R)-4-((S)-2,2-spirocyclopentylchroman-4-ylamino)-3-hydroxy-1-phenylbutan-2-yl)-6-oxo-1,6-dihydropyridine-3-carboxamide] the figure was no more than 5 µM; with `O=C(N[C@@H](Cc1ccccc1)[C@H](O)CN[C@H]1CC2(CCCC2)Oc2ccccc21)c1cc(-c2ccccn2)c(=O)n(C2CCCC2)c1` [Example 150, 1-cyclopentyl-N-((2S,3R)-4-((S)-2,2-spirocyclopentylchroman-4-ylamino)-3-hydroxy-1-phenylbutan-2-yl)-6-oxo-5-(pyridin-2-yl)-1,6-dihydropyridine-3-carboxamide], no more than 5 µM; with `CCc1ccc2c(c1)[C@@H](NC[C@@H](O)[C@H](Cc1ccccc1)NC(=O)c1ccc(=O)n(C3CCCC3)n1)CC1(CCC1)O2` [Example 151, 1-cyclopentyl-N-((2S,3R)-4-((S)-6-ethyl-2,2-spirocyclo-butylchroman-4-ylamino)-3-hydroxy-1-phenylbutan-2-yl)-6-oxo-1,6-dihydropyridazine-3-carboxamide], no more than 5 µM. Next, `O=C(N[C@@H](Cc1ccccc1)[C@H](O)CN[C@H]1CC2(CCC2)Oc2ccccc21)c1cc(N2CCCC2=O)c(=O)n(C2CCCC2)c1` [Example 152, 1-cyclopentyl-N-((2S,3R)-4-((S)-2,2-spirocyclobutylchroman-4-ylamino)-3-hydroxy-1-phenylbutan-2-yl)-6-oxo-5-(2-oxopyrrolidin-1-yl)-1,6-dihydropyridine-3-carboxamide]: no more than 5 µM; `O=C(N[C@@H](Cc1ccccc1)[C@H](O)CN[C@H]1CC2(CCC2)Oc2ccccc21)c1ccc(=O)n(C2CCCC2)c1` [Example 153, 1-cyclopentyl-N-((2S,3R)-4-((S)-2,2-spirocyclobutylchroman-4-ylamino)-3-hydroxy-1-phenylbutan-2-yl)-6-oxo-1,6-dihydropyridine-3-carboxamide]: no more than 5 µM. As to `CCc1ccc2c(c1)[C@@H](NC[C@@H](O)[C@H](Cc1ccccc1)NC(=O)c1cn(C3CCCC3)c(=O)c3ccccc13)CC1(CCCC1)O2` [Example 158, 2-cyclopentyl-N-((2S,3R)-4-((S)-6-ethyl-2,2-spirocyclopentylchroman-4-ylamino)-3-hydroxy-1-phenylbutan-2-yl)-1-oxo-1,2-dihydroisoquinoline-4-carboxamide], the half-maximal inhibitory concentration (IC50) was no more than 5 µM. Next, `CCc1ccc2c(c1)[C@@H](NC[C@@H](O)[C@H](Cc1ccccc1)NC(=O)c1cc(-c3ccccc3F)c(=O)n3c1CCC3C)CC1(CCCC1)O2` (stereo partly shown) [Example 159]: no more than 5 µM; `CCc1ccc2c(c1)[C@@H](NC[C@@H](O)[C@H](Cc1ccccc1)NC(=O)c1ccc(=O)n(C3CCCCC3)c1)CC1(CCCC1)O2` [Example 160]: no more than 5 µM; `CCc1ccc2c(c1)[C@@H](NC[C@@H](O)[C@H](Cc1ccccc1)NC(=O)c1ccc(=O)n(C3CCCC(C)C3)c1)CC1(CCCC1)O2` (stereo partly shown) [Example 161]: no more than 5 µM.

The term IC50 denotes the concentration at which inhibition is half-maximal.
